Data: patent US12691084B2, “Pharmaceutical composition for preventing or treating bone diseases” (INDUSTRY FOUNDATION OF CHONNAM NATIONAL UNIVERSITY, priority 2019, dated 2026)

How the values were obtained:
CYP3A4 = CYP3A4 (Homo sapiens, UniProt P08684); test: CYP450 drug metabolism inhibition, 3A4; format: in vitro ADME; conditions: for CYP 3A4 remaining activity: criterion remaining activity >50%
Method: (§1) In order to analyze the drug metabolism of PMSA compound, ADME evaluation was requested to the Daegu-Gyeongbuk Advanced Medical industry Promotion Foundation (DGMIF). Metabolic stability of drugs using liver microsomes (microsomal stability), drug metabolism inhibitory ability by five CYP450 enzymes, plasma metabolism (plasma stability), plasma protein binding, and intestinal permeability of drugs (PAMPA, parallel artificial membrane permeability assay) were analyzed. […] Further, it was confirmed that the permeability resistance was excellent (see Table 3 below). On the other hand, for one of PMSA derivatives, that is, 2-(N-(3,5-dimethylphenyl)methylsulfinamido)-N-(2 (phenylthio)phenyl)propanamide (#25-D5), intestinal permeability of the drug (PAMPA) was not measured.

[1] = test system: osteoblast progenitor cells treated with hBMP2; test: Osteoblast differentiation, ALP staining; format: cell-based, mouse; conditions: 7 days
Method: After collecting cells from C57BL/6J mouse calvaria at the age of 3 days, the cells were seeded on a 96-well plate in an amount of 4×10^3 cells per well, and then treated with 100 ng/ml of hBMP2 as a differentiation inducer. Simultaneously, the cells were treated with the compound of the present invention and cultured for 7 days, followed by ALP staining to assess differentiation influence. Specific experimental methods and results are as follows.
Precursor cells isolated from the mouse skull were treated with hBMP2 (Bone morphogenic protein 2, Sino biological, 10426-HNAE, 100 ng/ml) to induce differentiation into osteoblasts. Differentiated osteoblasts could be discriminated through alkaline phosphatase (ALP) staining as an osteoblast-specific protein. When the progenitor cells were treated with hBMP2, each of the 35D35 compounds was also used for treatment, followed by culturing the cells for 7 days while changing the medium every 2 to 3 days.
4×10^3 osteoblast progenitor cells were put into a 96-well plate and treated with hBMP2 to induce differentiation of osteoblasts. At this time, the cells were treated with #25 (PMSA-3-Ac) and #25-D12 (PMSA-2-OMe-5-Cl), respectively, and then cultured for 7 days.
After discarding the ethanol, the remaining product was washed with HBSS, followed by adding a NBT solution (Sigma, B1911) in an amount of 100 μl per well and staining for 15 minutes. By washing twice with water, the remaining dye was eliminated. After ALP staining, a degree of color development was measured using Image J software, and then graphed for comparison. […] In other words, it can be seen that the differentiation of osteoblasts is not affected by treatment with the PMSA compound.
Precursor cells isolated from the mouse skull were treated with hBMP2 (Bone morphogenic protein 2, Sino biological, 10426-HNAE) to induce differentiation into osteoblasts. […]
After ALP staining, the degree of color development was measured using Image J software, and then graphed for comparison. […]

CYP2C19 = CYP2C19 (Homo sapiens, UniProt P33261); test: CYP450 drug metabolism inhibition, 2C19; format: in vitro ADME; conditions: criterion remaining activity >50%
Method: as §1

Plasma stability = format: in vitro ADME
Method: as §1

Microsomal stability (M) = format: in vitro ADME, mouse; conditions: M of H/M; criterion >60%
Method: as §1

[2] = test system: osteoclast-specific genes (CatK, NFATc1, DC-STAMP, OC-STAMP, Acp5); test: qRT-PCR of osteoclast-specific gene mRNA expression; format: cell-based, mouse; conditions: for mRNA expression of DC-STAMP / mRNA expression of OC-STAMP / mRNA expression of cathepsin K (CtsK): day 3 of differentiation, compared to control (Ctrl) without PMSA treatment
Method: Further, in order to confirm the expression degree of the osteoclast-specific gene, an mRNA expression level was measured by RT-PCR in the PMSA compound-treated cells. RNA was isolated from the cells differentiated into osteoclasts using an RNeasy kit (Qiagen, 74106), quantified using a spectrophotometer, followed by synthesizing 0.5 μg of RNA using reverse transcriptase (Takara, RR037 A). The synthesized cDNA was subjected to qRT-PCR with a QuantStudio 3 real-time PCR system (Applied Biosystems) using Power SYBR Green […] (Applied Biosystems).
All qPCR experiments were performed in duplicate, and 18S was used as a control. The ddCT method was used for data analysis.
In order to further confirm the inhibitory effect of PSTP-3,5-Me on osteoclast differentiation, the expression levels genes related to osteoclast production were investigated. mRNA expression of specific markers associated with osteoclast production was measured by RT-PCR in 0 or 6 μM PSTP-3,5-Me-treated cells.
For qRT-PCR, total RNA was extracted from BMMs using a TRIzol reagent (Thermo Fisher Scientific, MA, USA). Complementary DNA was synthesized from the total RNA using a Verso cDNA synthesis kit (Thermo Fisher Scientific, MA, USA). Thereafter, quantitative PCR (qPCR) was performed using the QuantStudio 3 real-time PCR system (Applied Biosystems, CA, USA) together with Power SYBR Green PCR Master Mm (Applied Biosystems, CA, USA).

mouse bone marrow cells = test: Bone resorption assay on calcium phosphate coated plate; format: cell-based; conditions: 6 days; for decrease in bone resorption ability: compared to differentiated osteoclasts (Ctrl) not treated, fluorescence absorbance
Method: Bone resorption ability was confirmed using a bone resorption assay kit (Cosmo Rio, CSR-BRA). 2.5×10^4 mouse bone marrow cells per well were put into a 48-well plate coated with calcium phosphate, followed by treating the cells with PMSA to perform differentiation for 6 days. After 6 days, a fluorescence absorbance was measured with the culture medium to confirm the bone absorption ability. Further, decomposition degree of calcium phosphate was photographed a microscope to confirm the bone resorption ability. […] In FIG. 4, BMMs refer to monocytes that are not differentiated osteoclasts.
Further, the bone resorption ability was confirmed using a bone resorption assay kit (Cosmo Bio, CSR-BRA). 2.5×10^4 mouse bone marrow cells per well were put into a 48-well plate coated with calcium phosphate, and were differentiated for 6 days while being treated with PSTP-3,5-Me. After 6 days, the fluorescence absorbance was measured with the culture medium to confirm the bone absorption ability.

plasma proteins = test: Plasma protein binding (PPB); format: in vitro ADME, Human; conditions: for binding with plasma proteins: conclusion from ADME evaluation
Method: as §1

[3] = 6 μM compared to control (0 μM)

CYP2C19, sequence (P33261 whole entry): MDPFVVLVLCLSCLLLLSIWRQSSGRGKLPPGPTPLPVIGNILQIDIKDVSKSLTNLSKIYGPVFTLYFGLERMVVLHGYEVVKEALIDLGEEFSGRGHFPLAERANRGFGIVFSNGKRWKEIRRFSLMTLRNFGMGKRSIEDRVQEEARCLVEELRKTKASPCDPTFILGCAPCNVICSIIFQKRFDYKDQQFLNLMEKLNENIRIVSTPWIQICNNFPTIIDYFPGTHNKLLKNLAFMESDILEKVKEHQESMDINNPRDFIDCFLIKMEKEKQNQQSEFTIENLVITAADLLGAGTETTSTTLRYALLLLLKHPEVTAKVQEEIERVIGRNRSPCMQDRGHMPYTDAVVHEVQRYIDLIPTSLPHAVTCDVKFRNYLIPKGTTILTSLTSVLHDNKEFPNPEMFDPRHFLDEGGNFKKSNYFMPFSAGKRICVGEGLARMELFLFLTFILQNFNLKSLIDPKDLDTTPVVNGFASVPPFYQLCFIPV
CYP3A4, sequence (P08684 whole entry): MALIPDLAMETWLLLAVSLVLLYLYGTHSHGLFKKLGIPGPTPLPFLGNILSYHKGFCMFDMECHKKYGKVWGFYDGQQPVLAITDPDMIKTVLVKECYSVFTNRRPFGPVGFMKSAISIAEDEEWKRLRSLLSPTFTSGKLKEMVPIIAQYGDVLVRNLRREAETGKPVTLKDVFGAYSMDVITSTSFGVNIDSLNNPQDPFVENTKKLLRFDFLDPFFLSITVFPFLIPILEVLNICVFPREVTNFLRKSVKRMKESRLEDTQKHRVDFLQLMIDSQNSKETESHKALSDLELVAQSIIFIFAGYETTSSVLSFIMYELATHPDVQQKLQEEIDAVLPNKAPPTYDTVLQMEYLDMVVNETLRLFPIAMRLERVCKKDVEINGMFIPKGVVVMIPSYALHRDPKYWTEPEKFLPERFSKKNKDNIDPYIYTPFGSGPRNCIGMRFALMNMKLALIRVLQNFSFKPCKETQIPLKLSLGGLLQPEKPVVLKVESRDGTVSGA

Row | CYP 3A4 remaining activity (CYP3A4) [%] | CYP 2C19 remaining activity (CYP2C19) [%] | Plasma S Human 30 min (% Remaining) (Plasma stability) | Plasma S Human 120 min (% Remaining) (Plasma stability) | Microsomal stability (>60%) M (Microsomal stability (M)) [%] | PPB Human (%, bound) (plasma proteins) | binding with plasma proteins (plasma proteins) | utility as a drug such as influence on activity of CYP3A4 (CYP3A4; compared with other derivatives) | Structure (SMILES) | osteoblast differentiation (ALP staining) [1] | mRNA expression of DC-STAMP [2] | mRNA expression of OC-STAMP [2] | mRNA expression of cathepsin K (CtsK) [2] | decrease in bone resorption ability (mouse bone marrow cells) [%] | Acp5 expression level [2, 3] | CatK expression degree [2, 3] | DC-STAMP expression level [2, 3] | NFATc1 expression degree [2, 3] | OC-STAMP expression level [2, 3] | bone resorption region (optical microscope) (mouse bone marrow cells) | bone resorption ability (fluorescence intensity) (mouse bone marrow cells; RANKL, 0, 3 or 10 μM)
1 | 53.3 | 6.2 | 87.1 % Remaining | 97.3 % Remaining | 8.0 | 98.4 %, bound | good | – | CC(=O)c1cccc(N(CC(=O)Nc2ccccc2Sc2ccccc2)S(C)(=O)=O)c1 [#25, 2-(N-(3-acetylphenyl)methylsulfonamido)-N-(2-(phenylthio)phenyl)acetamide] | did not inhibit or activate | decrease | decrease | decrease | 16 | – | – | – | – | – | – | –
2 | 13.4 | 21.7 | 100/100 % Remaining | 100/100 % Remaining | 14.7 | 99.8 %, bound | – | not higher than other derivatives | Cc1cc(C)cc(N([C@@H](C)C(=O)Nc2ccccc2Sc2ccccc2)S(C)(=O)=O)c1 [#25-D5, N^2-(3,5-dimethylphenyl)-N^2-(methylsulfonyl)-N-[2-(phenylthio)phenyl]alanineamide] | not affected | – | – | – | – | slightly decreased | significantly decreased | decreased on day 1 | significantly decreased | decreased on day 1 | not largely shown | significantly decreased in a dose-dependent manner
3 | 26 | 6.3 | 98.3 % Remaining | 97.8 % Remaining | 21.7 | 99.8 %, bound | good | – | COc1ccc(Cl)cc1N(CC(=O)Nc1ccccc1Sc1ccccc1)S(C)(=O)=O [#25-D12, 2-(N-(5-chloro-2-methoxyphenyl)methylsulfonamido)-N-(2-(phenylthio)phenyl)acetamide] | did not inhibit or activate | decrease | decrease | decrease | 12.5 | – | – | – | – | – | – | –
